How the values were obtained:
[1] = molecular target: T1, cytochrome P450eryF (Saccharopolyspora erythraea, UniProt Q00441); assay: ligand-induced spin shift; assay type: binding
[2] = molecular target: T1, cytochrome P450eryF; assay: lifetime FRET from F7GA to heme; assay type: binding

T1 sequence (Q00441 whole entry): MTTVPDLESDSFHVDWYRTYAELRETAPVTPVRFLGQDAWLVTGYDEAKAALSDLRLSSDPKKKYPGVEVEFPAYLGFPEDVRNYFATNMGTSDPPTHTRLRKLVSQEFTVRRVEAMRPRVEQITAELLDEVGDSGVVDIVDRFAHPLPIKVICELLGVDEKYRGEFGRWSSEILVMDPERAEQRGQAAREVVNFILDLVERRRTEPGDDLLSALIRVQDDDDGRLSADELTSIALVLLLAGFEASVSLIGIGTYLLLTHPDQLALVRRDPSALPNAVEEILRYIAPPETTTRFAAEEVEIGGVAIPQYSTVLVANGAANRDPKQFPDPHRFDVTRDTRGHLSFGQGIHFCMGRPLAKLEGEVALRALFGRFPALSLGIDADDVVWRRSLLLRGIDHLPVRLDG

Row | SMILES | Kd [1] [nM] | Kd [2] [nM]
1 | CCN(CC)c1ccc2nc3c4ccccc4c(=O)cc-3oc2c1 [Nile Red] | 3200 ± 200 | –
2 | CCCCNc1ccc2c3c(cccc13)C(=O)N(CCCC)C2=O [F7GA, 2-butyl-6-(butylamino)-1H-benzo[de]isoquinoline-1,3(2H)-dione] | – | 140 ± 60

Source: article PMC2662524 (Biochemistry, 2008)
